According to patent US8859578B2, “Natural product derivatives with antiprotozoal activity” (Radix Pharmaceuticals, Inc., priority 2012, dated 2014):
Values joined by “and” are separate entries in the source; they are usually repeats but may differ in a detail not shown here. Identical values can stand only once. Like-named read-outs stand apart in the source and are kept apart here.

What was measured:
[1] = test system: P. falciparum K1; test: In vitro blood stage antimalarial activity, [3H]hypoxanthine uptake; type: cell-based; details: Plasmodium falciparum
Procedure: (§1) In Vitro Blood Stage Antimalarial Efficacy Evaluation. New compounds were tested against a panel of strains of P. falciparum.
(§2) Test compounds were initially dissolved in DMSO and diluted 400 fold in RPMI 1640 culture medium supplemented with 25 mM Hepes, 32 mM NaHCO3 and 10% Albumax I (Gibco, NY). These solutions were subsequently serially diluted two-fold with a Beckman Biomek® 1000 Robot (Fullerton, Calif.) over 11 different concentrations. The parasites were exposed to serial dilutions of each compound for 48 hrs and incubated at 37° C. with 5% O2, 5% CO2 and 90% N2 prior to the addition of [^3H]hypoxanthine. After a further incubation of 18 hrs, parasite DNA was harvested from each microtiter well using Packard Filtermate™ 196 Harvester (Meriden, Conn.) onto glass filters. Uptake of [^3H]hypoxanthine was measured with a Packard TopCount Liquid Scintillation Counter (Packard Instrument Co.).

[2] = test system: rodent P. berghei; test: Antimalarial potency (MCD, MCureD) and therapeutic indices, rodent P. berghei; type: in vivo
Procedure: Antimalarial potency was measured by determination of the MCD (minimum clearance dose), a commonly used efficacy measurement. The primary therapeutic indices, which were obtained by using the MCDs as the effective parameters, were calculated. A secondary therapeutic indices measure of antimalarial potency was determined by use of the dose for the MCureD (minimum curative dose).

[3] = test system: P. falciparum 3D7; test: In vitro blood stage antimalarial activity, [3H]hypoxanthine uptake; type: cell-based; details: Plasmodium falciparum
Procedure: as §1, §2

[4] = test system: P. falciparum DD2; test: as above; type: cell-based; details: Plasmodium falciparum
Procedure: as §1, §2

[5] = test system: P. falciparum PH3; test: as above; type: cell-based; details: Plasmodium falciparum
Procedure: as §1, §2

[6] = test system: P. falciparum TM4; test: as above; type: cell-based; details: Plasmodium falciparum
Procedure: as §1, §2

[7] = test system: P. falciparum TM6; test: as above; type: cell-based; details: Plasmodium falciparum
Procedure: as §1, §2

[8] = test system: P. falciparum V1S; test: microbe, parasite or virus in culture; type: cell-based; details: Plasmodium falciparum
Procedure: as §1, §2

[9] = test system: Plasmodium cynomolgi; test: Radical curative activity in relapsed Rhesus monkeys; type: in vivo; details: for Monkeys cured: co-administered with chloroquine, two monkeys; for Days post-treatment (to relapse): with CQ 10 mg/kg/day for 7 days, one value per monkey
Procedure: Compounds with antihypnozoite activity will delay the relapse or radically cure the infection. […] Relapse was expected in the control group. Relapse in the treated group indicates failure of the test compounds. […] Relapse in experimental animals and the second relapse of the control monkeys were treated with the standard 7 day oral CQ and primaquine (1.78 mg base/kg).

[10] = test system: Liver Stage of P. yoelii yoelii; test: In vitro liver-stage antimalarial efficacy; type: cell-based; details: Plasmodium yoelii
Procedure: In Vitro Liver-Stage Antimalarial Efficacy Evaluation. Any new desirable antimalarial drug should be broad spectrum: it should be active against both the blood stage and the liver stage of the parasite. New compounds were assessed on the Plasmodium yoelii liver stage in vitro. The liver stage of P. yoelii is a parasite of rodent extensively used as an experimental model for studying the initial phase of the malaria infection.

[11] = test system: Plasmodium berghei; test: Oral prophylactic test in mice; type: in vivo
[12] = test system: chloroquine-resistant FVO strain of P. falciparum; test: Efficacy against blood stages of P. falciparum in Aotus monkeys; type: in vivo; details: oral for 3 days
Source text: In Vivo Efficacy Studies in Aotus Monkey Model. The monkeys selected for the study had active infections of the chloroquine-resistant FVO strain of P. falciparum.
Malaria-naive Panamanian owl monkeys (Aotus lemurinus lemurinus) were used as hosts for chioroquine-resistant P. falciparum. The chloroquine-resistant Vietnam Smith strain was used in the initial experiments. In subsequent studies, a recrudescent isolate from a Vietnam Smith strain infected Aotus monkey treated with chloroquine was used.
The inoculum size produced a parasitemia of at least 5×10^3/mm^3 by the fifth day postinoculation, at which time treatment was begun. Stock solutions of water-soluble drug were prepared at appropriate concentrations and maintained at 4° C. during the course of treatment. A suspension of water-insoluble drugs was prepared in 0.3% methylcellulose just prior to use. All drugs were administered by gastric intubation in a volume of 7.0 ml, followed by a 7.0-mi rinse with either water or 0.3% methylcellulose. Test drug was given orally for either three or seven consecutive days. […]
Giemsa-stained blood smears were prepared from all animals and examined daily beginning the day after inoculation until parasitemia was cleared and for at least seven days thereafter. […] Ten or less parasites on a thick blood film were recorded as <10. Parasitemia was enumerated and expressed as number of parasites/mm^3. […]

[13] = test system: Plasmodium cynomolgi sporozoite; test: Causal prophylactic activity in P. cynomolgi sporozoite-challenged Rhesus monkeys; type: in vivo; details: PO 15 mg/kg, 1 daily for 3 days
Source text: Two monkeys were used in each test group. The control animals developed parasitemia in about 10 days after inoculation of about 1×10^6 P. cynomolgi sporozoites harvested from Anopheles dirus. All the monkeys received three treatments, once a day for three consecutive days beginning a day before (−1, 0, +1) the sporozoites challenge. The control monkeys (group 1) received HECT and the experimental animals received testing compound by using 8 Fr., 15-in. long nasogastric tubes.

[14] = in vivo; details: Sprague-Dawley, rat, po

**Q.** For CCN(CC)Cc1cc(Nc2ccnc3cc(Cl)ccc23)ccc1O [Amodiaquine], which IC50 ([1]; read-out: IC50) is on record?
**A.** 21.2 ± 2.1 nM

**Q.** For C[C@H]1[C@H](OC(=O)CCC(=O)O)O[C@@H]2O[C@@]3(C)CC[C@H]4[C@H](C)CC[C@@H]1[C@@]24OO3 [Artesunate], which “MCureD (minimum curative dose)” value ([2]; route of administration iv) is on record?
**A.** 25.4 mg/kg

**Q.** Which IC50 [3] does the source give for CCN(CC)CCCC(C)Nc1ccnc2cc(Cl)ccc12 (stereo not drawn) [Chloroquine, reference compound] here?
**A.** 9.7 ± 3.4 nM

**Q.** And the IC50 [4]?
**A.** 45.8 ± 10.2 nM

**Q.** What about the IC50 [1] of the same compound?
**A.** 166 ± 19.3 nM

**Q.** What about the IC50 [5] of the same compound?
**A.** 33.4 ± 9.1 nM

**Q.** What about the IC50 [6] of the same compound?
**A.** 115 ± 12.7 nM

**Q.** What about the IC50 [7] of the same compound?
**A.** 96.4 ± 6.9 nM

**Q.** And the IC50 [8]?
**A.** 152 ± 14.1 nM

**Q.** And the “MCureD (minimum curative dose)” value ([2]; administered orally)?
**A.** None

**Q.** What about the “Results (radical curative test)” value ([9]; Rhesus monkeys, chloroquine alone, 10 mg/kg/day for 7 days) of the same compound?
**A.** relapse

**Q.** What does the source list for COc1cc2c(c3cc4c(nc13)C=C[C@@]1([C@H]3CC([C@H](O)[C@@H](N)C(C)C)OCO3)C=CCOC41)[C@@H]1OCOC[C@]1(C)N2 (stereo partly drawn) [Formula A]?
**A.** IC50 ([3]; read-out: IC50): 0.12 ± 0.03 nM; IC50 ([4]; read-out: IC50): 0.17 ± 0.04 nM; IC50 ([1]; read-out: IC50): 0.35 ± 0.06 nM; IC50 ([5]; read-out: IC50): 0.27 ± 0.05 nM; IC50 ([6]; read-out: IC50): 0.41 ± 0.09 nM; IC50 ([7]; read-out: IC50): 0.27 ± 0.05 nM; IC50 [8]: 0.21 ± 0.03 nM; IC50 [10]: 6.2 nM; MCureD (minimum curative dose) ([2]; administered orally): 12.6 mg/kg; Mice infected and treated/Mice surviving day 60 ([11]; day of treatment 1, dose 0.5 mg/kg oral): 5/5; Mice infected and treated/Mice surviving day 60 ([11]; day of treatment 1, dose 2 mg/kg oral): 5/5; Mice infected and treated/Mice surviving day 60 ([11]; day of treatment 1, dose 8 mg/kg oral): 5/5; Mice infected and treated/Mice surviving day 60 ([11]; day of treatment 1, dose 32 mg/kg oral): 5/5; Mice infected and treated/Mice surviving day 60 ([11]; day of treatment 2, dose 0.5 mg/kg oral): 5/5; Mice infected and treated/Mice surviving day 60 ([11]; day of treatment 2, dose 2 mg/kg oral): 5/5; Mice infected and treated/Mice surviving day 60 ([11]; day of treatment 2, dose 8 mg/kg oral): 5/5; Mice infected and treated/Mice surviving day 60 ([11]; day of treatment 2, dose 32 mg/kg oral): 5/5; Mice infected and treated/Mice surviving day 60 ([11]; day of treatment −1, dose 0.5 mg/kg oral): 5/5; Mice infected and treated/Mice surviving day 60 ([11]; day of treatment −1, dose 2 mg/kg oral): 5/5; Mice infected and treated/Mice surviving day 60 ([11]; day of treatment −1, dose 8 mg/kg oral): 5/5; Mice infected and treated/Mice surviving day 60 ([11]; day of treatment −1, dose 32 mg/kg oral): 5/5; Mice infected and treated/Mice surviving day 60 ([11]; day of treatment −2, dose 0.5 mg/kg oral): 5/5; Mice infected and treated/Mice surviving day 60 ([11]; day of treatment −2, dose 2 mg/kg oral): 5/5; Mice infected and treated/Mice surviving day 60 ([11]; day of treatment −2, dose 8 mg/kg oral): 5/5; Mice infected and treated/Mice surviving day 60 ([11]; day of treatment −2, dose 32 mg/kg oral): 5/5; Protection from malaria (oral prophylactic activity) ([11]; mice, single dose of 0.5 mg/kg within 2 days pre-infection through 2 days post-infection): completely protected from malaria; dosage needed to cure 50% of animals [12]: 2 mg/kg/day; dosage needed to cure 100% of animals [12]: 8 mg/kg/day; Delay of patency compared with untreated control monkeys [13]: delayed patency of treated monkeys more than a month; Parasite patency (days postinoculation) ([13]; one value per monkey, control 8 days, 15 mg/kg): 42 days and 60 days; Monkeys cured ([9]; 15 mg/kg/day level): one out of two monkeys; Monkeys cured ([9]; 30 mg/kg/day level): both monkeys; Days post-treatment (to relapse) ([9]; Rhesus monkeys, PO 15 mg/kg 1 daily for 3 days): 44 days and no relapse; Days post-treatment (to relapse) ([9]; Rhesus monkeys, PO 30 mg/kg 1 daily for 3 days): no relapse; NOAEL at 2 weeks [14]: > 100 mg/kg/day; MTD at 2 weeks ([14]; MTD (maximum tolerated dose)): > 500 mg/kg

**Q.** Which IC50 [10] does the source give for COc1cc(NC(C)CCCN)c2ncccc2c1 (stereo not drawn) [Primaquine, reference compound] here?
**A.** 76 nM
